Experimental data: article PMC3726599, “A Metabolically-Stabilized Phosphonate Analog of Lysophosphatidic Acid Attenuates Collagen-Induced Arthritis” (PLoS ONE, 2013)

How the values were obtained:
[1] = system: A549 cell; design: method as in PMID 20143443; conditions: A549, in vitro; cited from earlier work
[2] = molecular target: T1, recombinant ATX (Homo sapiens, UniProt Q13822); assay: Amplex Red activity assay, LPC hydrolysis by recombinant ATX (Echelon); type: biochemical; conditions: for % Inhibition at 10 μΜ: BrP-LPA 10 μΜ; for Ki: Cheng-Prusoff from IC50; for IC50: [S] 50 μΜ, Echelon ATX 2 nM, mean±std
T1 construct: purchased SinoBiological Inc (main data); R&D (additional Km values)
Method: BrP-LPA inhibition was also tested with the more sensitive reagent Amplex Red based on the Amplex™ Red PLD assay kit (Molecular Probes, Interchim, Montluçon, France) originally designed for the measurement of the PLD activity, [49]. All reactions were performed with purified ATX (2 nM) from Echelon at 37°C. The ability of ATX to cleave LPC was detected using a coupled assay that monitors the release of choline using Amplex Red (10 μΜ), choline oxidase (0.2 Units/ml) and horseradish peroxidise (2 Units/ml) The rate of fluorescence increase was measured in a fluorescence plate reader (Tecan Infinite 200 microplate reader from Tecan Trading AG, Switzerland) for up to 80 minutes; the fluorescence increase was linear during that time-frame for all cases. Rates were normalized to control reactions that contained all reaction components except for the test compound.
The biochemistry of lyso-PLD was assessed by following the kinetics data using a wide panel of different ATX substrates [FS-3, different LPC species (14:0, 16:0, 18:0, 18:1)], three different recombinant ATX proteins (R&D, Sino-Biological and Echelon) and three different ATX activity assays (FS-3, TOOS, Amplex Red). The ATX activity was measured at different substrate concentrations (typically from 1-1000 μM) in order to examine whether ATX follows Michaelis-Menten kinetics. The Michaelis constant (Km) was obtained by fitting the substrate dependence of V (ATX activity) to a rectangular hyperbola using the non-linear regression analysis of the statistical software package Prism 4.0 (GraphPad Software, Inc.). Km and Vmax were evaluated from the rectangular hyperbola curve with the use of GraphPad software.
For in vitro inhibition measurements, BrP-LPA was dissolved in water as a stock solution (4 mM) and appropriate dilutions were made in water. The inhibition of ATX by BrP-LPA was measured employing 2 nM recombinant ATX, 50 μΜ LPC (14:0, 16:0, 18:0) and 0.01 to 100 μmol/L of BrP-LPA (final concentrations). The in vitro inhibition of ATX by BrP-LPA was evaluated with three different assays (FS-3, Amplex Red, and TOOS). […] BrP-LPA was also tested for its ability to inhibit mouse plasma ATX activity. Diluted mouse plasma was used as the source of ATX and the analysis of inhibition was made with TOOS as the in vitro inhibition assay.
The inhibition model (competitive, noncompetitive, or mixed type inhibition) was evaluated by graphical analysis with Lineweaver–Burk double reciprocal plots (1/[velocity] versus 1/[substrate]) and Cornish-Bowden plot ([substrate]/[velocity] versus [Inhibitor]). These plots were generated by the measurement of ATX activity in the presence of different BrP-LPA concentrations (0–10 μΜ) and increased amounts of 16:0 LPC (100, 200, 400 μΜ). The inhibition constants (Ki) and IC50 values were determined using the mean values obtained from two independent experiments. The relative remaining ATX activity or LPA levels in the presence of the BrP-LPA was expressed as a percentage of the corresponding control value (ATX activity, LPA levels without inhibitor). The IC50 value was determined graphically by plotting the log concentration of BrP-LPA versus relative remaining ATX activity or LPA levels of each test sample using the sigmoid dose–response fitting method (Prism® software). The IC50 (concentration of BrP-LPA sufficient to inhibit ATX activity or diminish LPA levels by 50%) was calculated by the equation f = y0+a/(1+exp(-(x-x0)/b)) given by SigmaPlot 11.0 (Systat Software, Inc., San Jose, CA, USA).
Ki was calculated using the equation of Cheng and Prusoff: Ki = IC50/1+[S]/Km, where Ki is the binding affinity of the inhibitor, IC50 is the functional strength of the inhibitor, [S] is substrate concentration and Km is the concentration of substrate at which enzyme activity is half maximal. Whereas the IC50 value for a compound may vary between experiments depending on experimental conditions, Ki is an absolute value. […]

% Inhibition at 10 μΜ ([2]; 14:0 LPC 50 μΜ): 75%
Ki ([2]; 14:0 LPC): 1000 ± 400 nM
% Inhibition at 10 μΜ ([2]; 18:0 LPC 50 μΜ): 75%
Ki ([2]; 18:0 LPC): 800 ± 200 nM
IC50 ([2]; substrate 14:0 LPC): 1600 ± 100 nM
IC50 ([2]; substrate 18:0 LPC): 1100 ± 100 nM
Structure (SMILES): CCCCCCCCCCCCCCCC(=O)OC[C@@H](O)CC(Br)P(=O)(O)O (stereo partly drawn) [BrP-LPA, 1-bromo-3(S)-hydroxy-4-(palmitoyloxy)butyl-phosphonate]
cell migration and invasiveness [1]: inhibit cell migration and invasiveness
